According to PubChem BioAssay AID504342 (Broad Institute, 2011):
Calls of active or inactive are those of the source.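 Rule for the calls: active = fitted curve reaches 10% of the positive control caspase activation at or below the top valid tested dose; inactive = signal shifts the opposite way, plus the rest.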

Tests used:
[1] = caspase activation in Flag-A1-IRES-BIM MEFs, dose response, orthogonal assay for A1 inhibitor project, cell-based, MEF, plate reader, dry powder, set 2 (AID 504342); details: MEF Flag-A1-IRES-BIM, caspase-Glo luminescence, 3 h; at 35 µM (top of the series)
[2] = system: MEF Flag-A1-IRES-BIM, caspase-Glo luminescence, 3 h; experiment: as above

SMILES	caspase activation [1]	AC10 [2]
Cc1ccc(Nc2c([N+](=O)[O-])c(=O)oc3ccccc23)cc1	0.875% (inactive)	–
O=C(Oc1cccc(/C=N/Nc2nc(Nc3ccccc3)nc(N3CCOCC3)n2)c1)c1ccco1	2.95% (inactive)	–
C/C1=C/C(=O)O[C@@H]2C[C@@H](CC[C@H](C)/C=C\CC1)O[C@@](O)(C1CSC(=O)N1)C2 (stereo partly specified)	2.78% (inactive)	–
CCSc1c([N+](=O)[O-])c(=O)oc2ccccc12	-1.44% (inactive)	–
O=[N+]([O-])c1cnc2ccccc2c1Sc1ccccc1	-1.68% (inactive)	–
Cc1ccc(Sc2c([N+](=O)[O-])c(=O)oc3ccccc23)cc1	-2.87% (inactive)	–
CCOCCCNc1c([N+](=O)[O-])c(=O)n(C)c2ccccc12	1.28% (inactive)	–
Cc1ccc(Sc2cc(=O)n(C)c3ccccc23)cc1	-6.4% (inactive)	–
CCOC(=O)N1CCN(c2c([N+](=O)[O-])c(=O)n(C)c3ccccc23)CC1	-0.543% (inactive)	–
Cc1ccc(Sc2c([N+](=O)[O-])cnc3ccccc23)cc1	–	> 16 µM (inactive)
Cn1c(=O)c([N+](=O)[O-])c(Cl)c2ccccc21	–	1.11 µM
Cn1c(=O)c([N+](=O)[O-])c(Nc2ccc(Cl)cc2)c2ccccc21	-0.882% (inactive)	–
Cc1ccc(Nc2c([N+](=O)[O-])c(=O)n(C)c3ccccc23)cc1	-0.435% (inactive)	–
O=c1oc2ccccc2c(Cl)c1[N+](=O)[O-]	-5.93% (inactive)	–
Cn1c(=O)c([N+](=O)[O-])c(-n2cnc3ccccc32)c2ccccc21	–	15.1 µM
Cn1c(=O)c([N+](=O)[O-])c(Oc2ccccc2)c2ccccc21	–	> 35 µM (inactive)
O=c1oc2ccccc2c(Nc2cc(Cl)cc(Cl)c2)c1[N+](=O)[O-]	-0.897% (inactive)	–
O=c1oc2ccccc2c(Sc2ccccc2)c1[N+](=O)[O-]	-6.2% (inactive)	–
O=c1oc2ccccc2c(N2CCCCC2)c1[N+](=O)[O-]	-2.6% (inactive)	–
CN1C(=O)C(C)(C)N(Cc2ccccc2)c2ccccc21	1.13% (inactive)	–
Cc1ccc(Sc2c([N+](=O)[O-])c(=O)n(C)c3ccccc23)cc1	–	5.09 µM
